Non-standard residues stand in square brackets, D forms with d. Residues, ends and D or L forms follow the SMILES beside them. Met(O2) = CS(=O)(=O)CC[C@H](N)C(=O)O
Assays:
[1] = test system: dementias; alcoholic inebriation; settings: human, in vivo; cited from earlier work
[2] = Toxicity of subcutaneous doses in the rat model; type: in vivo; settings: doses up to four times 27.2 ug (65-75 ug/kg), s.c.
cisplatin neuropathy = settings: in vivo; cited from earlier work
intracranial pressure = test system: intracranial pressure; set-up: species or system rat (Wistar); settings: rat, in vivo
From the text: (§1) Applicant has developed a reliable physiologic model of potentially reversible, controlled fixed and closed-head injury in the laboratory rat (Wistar, Harlan Sprague-Dawley, Inc. Indianapolis, Ind.) that mimics many of the features of moderate concussion in humans. The model permits long term examination of subsequent cerebrovascular pathophysiological sequelae in conscious, unrestrained animals.
A rat anesthetized with halothane was mounted in a prone position on the test board and the head was fixed in position by means of the bite plate 30 over which the upper incisors were engaged as shown in FIG. 1c. The board angle of recline and the axis of pendulum rotation were adjustable to permit a flat or angled (3°-5° ) strike on the chosen head impact site. The optimum applied force/angle was selected from the nomogram. The pendulum was raised to the desired angle and released through a quick-release mechanism to fall into impact with the head. Forces developed by this means ranged from 60 to 85 pounds. […]
Intracranial pressures were determined in separate but identically treated animals. […] A Camino 431 miniature pressure sensor was inserted into the tubing and pressure was measured on Camino 420 Digital Pressure Monitor System. Intracranial pressure measurements were monitored from 5 minutes before and up to […] following head impaction. […]

[3] = test system: blood brain barrier permeability; set-up: species or system rat (Wistar); settings: rat, in vivo
From the text: as §1
A rat anesthetized with halothane was mounted in a prone position on the test board and the head was fixed in position by means of the bite plate 30 over which the upper incisors were engaged as shown in FIG. 1c. […]
Brain vascular volume (BVS) and permeability were determined simultaneously utilizing modified methods of Rapoport, as described below (18). […] Moreover, estimates of BVS determined with either tracer are in agreement with published values obtained at more conventional time-intervals, e.g., two to ten minutes, after intravenous injection with an error of less than 4%. […]
The experimental protocol for the measurement of blood-to-brain transfer of diffusion-limited substances such as sucrose involved surgical implantation of catheters, one in a femoral vein, the other in the opposite femoral artery, under halothane anesthesia. […] The behavior of the animal was carefully monitored. […]

[4] = modified peptide less susceptible to enzymatic degradation, versus ACTH4-10; cited from earlier work

For `CS(=O)(=O)CC[C@H](N)C(=O)N[C@@H](CCC(=O)O)C(=O)N[C@@H](Cc1c[nH]cn1)C(=O)N[C@@H](Cc1ccccc1)C(=O)N[C@H](CCCCN)C(=O)N[C@@H](Cc1ccccc1)C(=O)O` [Organon 2766, Met (O2) Glu-His-Phe-D-Lys-Phe] (H-[Met(O2)]EHF[dK]F-OH), the “toxicity and side effects in humans” value [1] is given as “non-toxic and had no serious side effects”, the lethality [2] is given as “not lethal” and the “cytotoxic effect of cisplatin” value (cisplatin neuropathy) is given as “without adversely effecting”. The toxic effects (cisplatin neuropathy) was “No toxic effects were noted”, the “ICP in uninjured animals” value (intracranial pressure) was “not different from control animals” and the “permeability of the blood-brain barrier at high dose” value [3] was “dramatically increased”. For the same compound, the “half life in vivo” value [4] was “longer half life”.
